Numbered stars: 1 amine (or outer) side, 2 acyl side, 3 side chain; on linkers, the order of the positions; unused ones are H or OH. Bridge positions count the residues as written; N and C are the ends. Square brackets hold non-standard residues; d marks the D form. Peptide text beside a SMILES is read from it. X3 = O=C(/C=N/OCCCCCCOc1cc(C[*:2])cc(C[*:3])c1)[*:1]; X5 = O=C(CCCCCCOc1cc(C[*:2])cc(C[*:3])c1)[*:1]; aIle = CC[C@@H](C)[C@H](N)C(=O)O; tBuAla = CC(C)(C)C[C@H](N)C(=O)O; hSer = N[C@@H](CCO)C(=O)O; Nle = CCCC[C@H](N)C(=O)O
Target: T1, rh-integrin α4β7/LPAM-1 (Homo sapiens, UniProt P13612+P26010)
T1 sequence (P13612 34-977 limits assumed): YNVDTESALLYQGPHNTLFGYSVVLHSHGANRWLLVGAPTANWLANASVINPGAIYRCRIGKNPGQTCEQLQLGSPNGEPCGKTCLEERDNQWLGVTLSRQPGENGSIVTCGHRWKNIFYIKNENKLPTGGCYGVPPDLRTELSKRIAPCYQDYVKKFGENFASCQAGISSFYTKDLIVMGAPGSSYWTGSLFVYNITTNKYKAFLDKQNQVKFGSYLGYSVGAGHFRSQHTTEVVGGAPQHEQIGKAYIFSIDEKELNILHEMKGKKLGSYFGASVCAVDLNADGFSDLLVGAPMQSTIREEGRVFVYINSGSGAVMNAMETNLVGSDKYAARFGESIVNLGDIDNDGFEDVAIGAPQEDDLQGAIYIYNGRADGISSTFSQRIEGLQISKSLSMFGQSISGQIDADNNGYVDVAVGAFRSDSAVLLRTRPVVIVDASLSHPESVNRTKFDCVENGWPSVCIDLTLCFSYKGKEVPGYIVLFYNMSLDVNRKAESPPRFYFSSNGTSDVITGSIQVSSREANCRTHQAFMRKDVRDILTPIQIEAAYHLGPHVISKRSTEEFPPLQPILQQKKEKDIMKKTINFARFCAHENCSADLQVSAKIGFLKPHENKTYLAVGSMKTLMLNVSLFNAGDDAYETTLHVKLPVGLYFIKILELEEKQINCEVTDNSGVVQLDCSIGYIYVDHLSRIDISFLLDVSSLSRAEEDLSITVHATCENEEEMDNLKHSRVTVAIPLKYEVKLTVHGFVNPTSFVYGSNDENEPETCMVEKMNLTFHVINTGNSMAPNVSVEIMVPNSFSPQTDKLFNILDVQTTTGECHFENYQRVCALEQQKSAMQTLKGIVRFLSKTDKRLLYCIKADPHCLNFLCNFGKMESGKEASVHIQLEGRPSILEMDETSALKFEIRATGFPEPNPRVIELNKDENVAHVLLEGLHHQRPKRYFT
T1 sequence (P26010 20-723 limits assumed): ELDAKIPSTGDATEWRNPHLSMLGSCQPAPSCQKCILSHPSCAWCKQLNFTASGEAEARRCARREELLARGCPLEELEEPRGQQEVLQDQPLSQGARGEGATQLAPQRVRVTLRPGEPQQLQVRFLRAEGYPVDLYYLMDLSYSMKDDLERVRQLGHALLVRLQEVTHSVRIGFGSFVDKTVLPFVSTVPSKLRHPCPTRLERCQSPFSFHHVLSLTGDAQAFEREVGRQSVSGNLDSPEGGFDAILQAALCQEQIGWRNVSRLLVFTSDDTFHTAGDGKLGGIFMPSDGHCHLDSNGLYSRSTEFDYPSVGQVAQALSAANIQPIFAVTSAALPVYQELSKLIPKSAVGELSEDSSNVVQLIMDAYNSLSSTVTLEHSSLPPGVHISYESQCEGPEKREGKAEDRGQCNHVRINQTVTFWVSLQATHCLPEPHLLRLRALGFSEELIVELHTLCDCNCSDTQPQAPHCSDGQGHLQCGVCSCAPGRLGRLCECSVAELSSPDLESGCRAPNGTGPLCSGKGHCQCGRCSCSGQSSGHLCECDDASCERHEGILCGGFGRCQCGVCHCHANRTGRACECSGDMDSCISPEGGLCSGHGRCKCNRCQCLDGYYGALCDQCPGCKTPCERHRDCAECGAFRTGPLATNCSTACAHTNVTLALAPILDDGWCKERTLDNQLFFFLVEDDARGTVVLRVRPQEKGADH
Experiment: α4β7-MadCAM Competition ELISA (Example 4)
Assay type: binding
Conditions: Table 3 Representative compounds; inhibition of MAdCAM binding to coated α4β7; read-out: IC50
Protocol: After washing with wash buffer, 200 μL assay buffer was added to each well and incubated for one hour at 28° C. After another wash with wash buffer, 100 μL of a MAdCAM and peptide mixture in assay buffer was added to each well and incubated for one hour at 28° C., followed by washing with wash buffer.

Q: CC(C)C[C@@H]1NC(=O)[C@@H]2CCCN2C(=O)[C@@H]2CSCc3cc(cc(c3)OCCCCCCO/N=C/C(=O)N[C@@H](CCCCN)C(=O)N2)CSC[C@@H](C(N)=O)NC(=O)[C@H](CO)NC(=O)[C@@H]2CCCN2C(=O)[C@H](C)NC(=O)[C@H](CC(=O)O)NC1=O [compound 50, TSL6- SKCPLDAPSC] (KCPLDAPSC-NH2; linker N-2-9 via X3) was tested. Which IC50 did it give?
A: 1.74 µM

Q: With CC[C@H](C)[C@@H]1NC(=O)/C=N/OCCCCCCOc2cc3cc(c2)CSC[C@H](NC1=O)C(=O)N[C@@H](Cc1ccc(O)cc1)C(=O)N1CCC[C@H]1C(=O)N[C@@H](CC(=O)O)C(=O)N[C@@H]([C@@H](C)O)C(=O)N[C@@H](Cc1ccc(O)cc1)C(=O)N[C@@H](Cc1cnc[nH]1)C(=O)N[C@H](C(N)=O)CSC3 [compound 91, TSL6- SICYPDTYHC] (ICYPDTYHC-NH2; linker N-2-9 via X3) as the molecule, how does the IC50 read?
A: 93.2 µM

Q: CSCC[C@@H]1NC(=O)[C@@H]2CCCN2C(=O)[C@@H]2CSCc3cc(cc(c3)OCCCCCCO/N=C/C(=O)N[C@@H](C)C(=O)N2)CSC[C@@H](C(N)=O)NC(=O)[C@H](CCC(=O)O)NC(=O)CNC(=O)[C@H](Cc2c[nH]c3ccccc23)NC(=O)[C@H](C(C)C)NC(=O)[C@H](CC(=O)O)NC1=O [compound 75, TSL6- SACPMDVWGEC] (ACPMDVWGEC-NH2; linker N-2-10 via X3) was tested. Which IC50 did it give?
A: 31.3 µM

Q: Which IC50 does the source give for CC(C)C[C@@H]1NC(=O)[C@@H]2CCCN2C(=O)[C@@H]2CSCc3cc(cc(c3)OCCCCCCO/N=C/C(=O)N[C@@H](CCCCN)C(=O)N2)CSC[C@@H](C(N)=O)NC(=O)[C@H](CCC(=O)O)NC(=O)[C@H](Cc2ccc(O)cc2)NC(=O)[C@@H]2CCCN2C(=O)[C@H]([C@@H](C)O)NC(=O)[C@H](C)NC1=O [compound 108, TSL6- SKCPLATPYEC] (KCPLATPYEC-NH2; linker N-2-10 via X3) here?
A: > 500 µM

Q: Which IC50 does the source give for CCCC[C@@H]1NC(=O)[C@H](CO)NC(=O)[C@@H]2CSSC[C@@H](C(=O)N[C@@H](Cc3c[nH]c4ccccc34)C(=O)N[C@@H](CCC(N)=O)C(N)=O)NC(=O)[C@H](CC(C)C)NC(=O)[C@@H]([C@H](C)O)NC(=O)[C@H](CC(=O)O)NC(=O)[C@H](CO)NC(=O)[C@H](CCCNC(=N)N)NC(=O)[C@H](CSCC(=O)N[C@@H](CCCNC(=N)N)C(=O)N2)NC(=O)[C@H](CC(C)C)NC(=O)[C@H](CC(=O)O)NC1=O [compound 76, Disulfide- RCS{Nle}DICRS DTLCWQ] ({CH2CO}-RCS[Nle]DLCRSD[dT]LCWQ-NH2; disulfide 2-13; thioether N-7) here?
A: 34.3 µM

Q: CSCC[C@@H]1NC(=O)/C=N/OCCCCCCOc2cc3cc(c2)CSC[C@H](NC1=O)C(=O)N1CCC[C@H]1C(=O)N[C@@H](CC(C)C)C(=O)N[C@@H](Cc1ccc(O)cc1)C(=O)N[C@@H](CCCCN)C(=O)N[C@@H](C(C)C)C(=O)N[C@@H](Cc1cnc[nH]1)C(=O)N[C@H](C(N)=O)CSC3 [compound 98, TSL6- SMCPLYKVHC] (MCPLYKVHC-NH2; linker N-2-9 via X3) was tested. Which IC50 did it give?
A: 151 µM

Q: For CSCC[C@@H]1NC(=O)[C@@H]2CCCN2C(=O)[C@@H]2CSCc3cc(cc(c3)OCCCCCCO/N=C/C(=O)N[C@@H](CCC(N)=O)C(=O)N2)CSC[C@@H](C(N)=O)NC(=O)[C@H]([C@@H](C)O)NC(=O)[C@@H]2CCCN2C(=O)[C@H](C(C)C)NC(=O)[C@H](CC(=O)O)NC1=O [compound 28, TSL6- SQCPMDVPTC] (QCPMDVPTC-NH2; linker N-2-9 via X3), which IC50 is on record?
A: 0.672 µM

Q: How did the IC50 turn out when CC[C@@H](C)[C@@H]1NC(=O)/C=N/OCCCCCCOc2cc3cc(c2)CSC[C@H](NC1=O)C(=O)N[C@@H](CCCNC(=N)N)C(=O)N[C@@H]([C@@H](C)O)C(=O)N[C@@H](CC(=O)O)C(=O)N[C@@H](C(C)C)C(=O)N1CCC[C@H]1C(=O)N[C@@H]([C@@H](C)CC)C(=O)N[C@@H](CC(=O)O)C(=O)N[C@H](C(N)=O)CSC3 [compound 66, TSL6- SICRTDVPIDC] ([aIle]CRTDVPIDC-NH2; linker N-2-10 via X3) was run?
A: 14.4 µM

Q: How did the IC50 turn out when CC(C)[C@@H]1NC(=O)[C@H](CC(=O)O)NC(=O)[C@H](CC(C)(C)C)NC(=O)[C@@H]2CCCN2C(=O)[C@@H]2CSCc3cc(cc(c3)OCCCCCCO/N=C/C(=O)N[C@@H](CCCNC(=N)N)C(=O)N2)CSC[C@@H](C(N)=O)NC(=O)[C@H](CCC(=O)O)NC(=O)[C@H](CCC(N)=O)NC(=O)[C@@H]2CCCN2C1=O [compound 30, TSL6- SRCP{tBuAla} DVPQEC] (RCP[tBuAla]DVPQEC-NH2; linker N-2-10 via X3) was run?
A: 0.69 µM

Q: Which IC50 does the source give for CC(C)C[C@@H]1NC(=O)[C@@H]2CCCN2C(=O)[C@@H]2CSCc3cc(cc(c3)OCCCCCCO/N=C/C(=O)N[C@@H](C)C(=O)N2)CSC[C@@H](C(N)=O)NC(=O)[C@H](CCC(=O)O)NC(=O)[C@H](Cc2ccc(O)cc2)NC(=O)[C@@H]2CCCN2C(=O)C([C@@H](C)O)NC(=O)[C@H](CC(=O)O)NC1=O (stereo in doubt) [compound 43, TSL6- SACPLDTPYEC] here?
A: 1.45 µM

Q: For CCCC[C@@H]1NC(=O)[C@@H]2CCCN2C(=O)[C@@H]2CSCc3cc(cc(c3)OCCCCCCO/N=C/C(=O)N[C@@H](CCCNC(=N)N)C(=O)N2)CSC[C@@H](C(N)=O)NC(=O)[C@H](CCC(=O)O)NC(=O)[C@H](C)NC(=O)[C@H](C)NC(=O)[C@H]([C@@H](C)CC)NC(=O)[C@H](CC(=O)O)NC1=O [compound 12] (RCP[Nle]DIAAEC-NH2; linker N-2-10 via X3), which IC50 is on record?
A: 0.204 µM

Q: Which IC50 does the source give for CC(C)C[C@@H]1NC(=O)[C@@H]2CCCN2C(=O)[C@@H]2CSCc3cc(cc(c3)OCCCCCCO/N=C/C(=O)N[C@@H](CCCCN)C(=O)N2)CSC[C@@H](C(N)=O)NC(=O)[C@H](CCC(=O)O)NC(=O)[C@H](Cc2ccc(O)cc2)NC(=O)[C@@H]2CCCN2C(=O)[C@H](C)NC(=O)[C@H](CC(=O)O)NC1=O [compound 42, TSL6- SKCPLDAPYEC] (KCPLDAPYEC-NH2; linker N-2-10 via X3) here?
A: 1.4 µM

Q: With C[C@@H](O)[C@@H]1NC(=O)[C@H](CC(=O)O)NC(=O)[C@@H]2CCCN2C(=O)[C@H](Cc2ccc(O)cc2)NC(=O)[C@@H]2CSCc3cc(cc(c3)OCCCCCCO/N=C/C(=O)N[C@@H](CC(=O)O)C(=O)N2)CSC[C@@H](C(N)=O)NC(=O)[C@H](Cc2cnc[nH]2)NC(=O)[C@H](Cc2ccccc2)NC1=O [compound 79, TSL6- SDCYPDTFHC] (DCYPDTFHC-NH2; linker N-2-9 via X3) as the molecule, how does the IC50 read?
A: 53.5 µM

Q: For CC(C)C[C@@H]1NC(=O)[C@@H]2CCCN2C(=O)[C@@H]2CSCc3cc(cc(c3)OCCCCCCO/N=C/C(=O)N[C@@H](CCCCN)C(=O)N2)CSC[C@@H](C(N)=O)NC(=O)[C@H](CCC(=O)O)NC(=O)[C@H]([C@@H](C)O)NC(=O)[C@@H]2CCCN2C(=O)[C@H]([C@@H](C)O)NC(=O)[C@H](CC(=O)O)NC1=O [compound 34, TSL6- SKCPLDTPTEC] (KCPLDTPTEC-NH2; linker N-2-10 via X3), which IC50 is on record?
A: 0.748 µM

Q: With C[C@@H]1NC(=O)/C=N/OCCCCCCOc2cc3cc(c2)CSC[C@H](NC1=O)C(=O)N[C@@H](Cc1ccc(O)cc1)C(=O)N1CCC[C@H]1C(=O)N[C@@H](CC(=O)O)C(=O)N[C@@H]([C@@H](C)O)C(=O)N[C@@H](Cc1ccc(O)cc1)C(=O)N[C@@H](Cc1cnc[nH]1)C(=O)N[C@H](C(N)=O)CSC3 [compound 93, TSL6- SACYPDTYHC] (ACYPDTYHC-NH2; linker N-2-9 via X3) as the molecule, how does the IC50 read?
A: 111 µM

Same assay, conditions: competition ELISA, 4 μg/mL α4β7 coated, MAdCAM and peptide mixture, 28° C.; read-out: IC50

Q: COCC[C@@H]1NC(=O)[C@@H]2CCCN2C(=O)[C@@H]2CSCc3cc(cc(c3)OCCCCCCC(=O)NCC(=O)N[C@@H](CCC(N)=O)C(=O)N2)CSC[C@@H](C(=O)O)NC(=O)[C@H](CCC(=O)O)NC(=O)[C@H](CCC(N)=O)NC(=O)[C@@H]2CCCN2C(=O)[C@H](CC(C)(C)C)NC(=O)[C@H](CC(=O)O)NC1=O [SEQ ID NO: 89] (GQCP[hSer](Me)D[tBuAla]PQEC-OH; linker N-3-11 via X5; C-terminus assumed) was tested. Which IC50 did it give?
A: 55.9 µM
